In patent US20230265151A1, “GIP/GLP1 CO-AGONIST COMPOUNDS” (priority 2020, published 2023):
Read-outs that look alike come from different tables or passages of the source.

Legend:
Type in all cases: cell-based
hGLP-1R = hGLP-1R (Homo sapiens, UniProt P43220); assay: Functional cAMP formation (HTRF) in HEK-293 clonal cells expressing hGLP-1R, 0.1% bovine casein, without or with 1.0% human serum albumin; set-up: expressed in transfected cells; details: for EC50: geometric mean
In short: (§1)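 Cells were stimulated with peptide for 30 min at 37° C, then lysed in buffer carrying cAMP-d2 and anti-cAMP Eu3+-cryptate for a competitive HTRF read after at least 60 min at room temperature. The 665/620 nm ratio was converted to nM cAMP against a standard curve.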

hGCGR = molecular target: T1, hGCGR (Homo sapiens, UniProt P47871); assay: Functional cAMP formation (HTRF) in HEK-293 clonal cells expressing hGCGR, 0.1% bovine casein, without or with 1.0% human serum albumin
T1 construct: expressed in transfected cells
In short: as §1

hGIPR = molecular target: T2, hGIPR (Homo sapiens, UniProt P48546); assay: Functional cAMP formation (HTRF) in HEK-293 clonal cells expressing hGIPR, 0.1% bovine casein, without or with 1.0% human serum albumin; details: for EC50: geometric mean
T2 construct: expressed in transfected cells
T2 sequence (P48546 22-466): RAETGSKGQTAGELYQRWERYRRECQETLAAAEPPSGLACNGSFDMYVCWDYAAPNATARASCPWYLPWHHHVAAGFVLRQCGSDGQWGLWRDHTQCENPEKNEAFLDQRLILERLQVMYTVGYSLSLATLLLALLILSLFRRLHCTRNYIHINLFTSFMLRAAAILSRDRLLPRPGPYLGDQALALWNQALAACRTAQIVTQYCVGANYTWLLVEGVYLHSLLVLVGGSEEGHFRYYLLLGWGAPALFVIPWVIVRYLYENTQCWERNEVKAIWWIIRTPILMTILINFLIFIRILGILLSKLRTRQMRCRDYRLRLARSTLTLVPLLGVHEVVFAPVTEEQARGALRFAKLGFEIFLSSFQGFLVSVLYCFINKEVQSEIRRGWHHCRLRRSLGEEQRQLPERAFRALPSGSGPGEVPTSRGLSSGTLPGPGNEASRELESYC
In short: as §1

[1] = hGCGR EC50, nM (SEM, n), 0.1% bovine casein and 1.0% human serum albumin, 37° C., geometric mean
[2] = hGCGR EC50, nM (SEM, n), cAMP, 37° C., 0.1% bovine casein (no human serum albumin), geometric mean
[3] = HEK293, read-out: hGIPR Emax, % ± SEM, 0.1% bovine casein and 1.0% human serum albumin, 37° C., percent of maximal response to GIP(1-42)NH2
[4] = HEK293, read-out: hGIPR Emax, % ± SEM, cAMP, 37° C., 0.1% bovine casein, percent of maximal response to GIP(1-42)NH2, arithmetic mean

Chain of hGLP-1R (P43220 24-463): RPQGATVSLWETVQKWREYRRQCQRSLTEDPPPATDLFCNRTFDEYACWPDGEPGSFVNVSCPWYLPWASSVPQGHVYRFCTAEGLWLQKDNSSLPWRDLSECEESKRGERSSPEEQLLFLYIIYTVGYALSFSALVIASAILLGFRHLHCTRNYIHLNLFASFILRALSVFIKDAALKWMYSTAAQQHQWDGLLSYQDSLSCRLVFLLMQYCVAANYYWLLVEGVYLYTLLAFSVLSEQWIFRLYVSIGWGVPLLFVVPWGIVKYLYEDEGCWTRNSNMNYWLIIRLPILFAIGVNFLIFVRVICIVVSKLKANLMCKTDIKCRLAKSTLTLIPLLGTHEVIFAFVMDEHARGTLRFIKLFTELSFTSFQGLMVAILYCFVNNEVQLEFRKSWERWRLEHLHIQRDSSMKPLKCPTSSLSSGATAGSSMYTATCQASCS
T1 sequence (P47871 26-477): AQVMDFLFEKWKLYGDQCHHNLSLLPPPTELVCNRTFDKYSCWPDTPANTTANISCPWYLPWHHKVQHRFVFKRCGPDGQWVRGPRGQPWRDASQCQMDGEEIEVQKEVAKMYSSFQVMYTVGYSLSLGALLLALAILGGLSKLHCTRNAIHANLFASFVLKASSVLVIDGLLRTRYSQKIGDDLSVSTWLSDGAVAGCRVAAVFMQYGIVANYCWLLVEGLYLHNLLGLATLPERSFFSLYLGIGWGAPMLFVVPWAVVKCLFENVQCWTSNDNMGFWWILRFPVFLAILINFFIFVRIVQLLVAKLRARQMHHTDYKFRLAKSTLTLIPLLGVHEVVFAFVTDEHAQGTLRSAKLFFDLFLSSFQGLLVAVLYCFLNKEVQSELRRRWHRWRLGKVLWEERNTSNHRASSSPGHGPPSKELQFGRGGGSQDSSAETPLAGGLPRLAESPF

## CC[C@H](C)[C@H](NC(=O)[C@H](CCCN)NC(=O)[C@H](CC(=O)O)NC(=O)[C@H](CC(C)C)NC(=O)[C@](C)(CC(C)C)NC(=O)[C@@H](NC(=O)[C@H](CO)NC(=O)[C@H](Cc1ccncc1)NC(=O)[C@H](CC(=O)O)NC(=O)[C@H](CO)NC(=O)[C@@H](NC(=O)[C@](C)(Cc1ccccc1F)NC(=O)[C@@H](NC(=O)CNC(=O)[C@H](CCC(=O)O)NC(=O)C(C)(C)NC(=O)[C@@H](N)Cc1ccc(O)cc1)[C@@H](C)O)[C@@H](C)O)[C@@H](C)CC)C(=O)N[C@@H](C)C(=O)N[C@@H](CCC(N)=O)C(=O)NC(C)(C)C(=O)N[C@@H](CCCCNC(=O)COCCOCCNC(=O)COCCOCCNC(=O)CC[C@H](NC(=O)CCCCCCCCCCOc1ccc(C(=O)O)cc1)C(=O)O)C(=O)N[C@@H](Cc1ccccc1)C(=O)N[C@H](C(=O)N[C@H](CCC(=O)O)C(=O)N[C@@](C)(Cc1ccc(O)cc1)C(=O)N[C@@H](CC(C)C)C(=O)N[C@H](C(=O)N[C@@H](CCCCNC(=O)COCCOCCNC(=O)COCCOCCNC(=O)CC[C@H](NC(=O)CCCCCCCCCCOc1ccc(C(=O)O)cc1)C(=O)O)C(=O)NCC(=O)NCC(=O)N1CCC[C@H]1C(=O)N[C@@H](CO)C(=O)N[C@@H](CO)C(=O)NCC(=O)N[C@@H](C)C(=O)N1CCC[C@H]1C(=O)N1CCC[C@H]1C(=O)N1CCC[C@H]1C(=O)N[C@@H](CO)C(N)=O)[C@@H](C)CC)[C@@H](C)CC [Example 287]
hGLP-1R; HEK293, read-out: hGLP-1R Emax, % ± SEM, cAMP, 37° C., 0.1% bovine casein, percent of maximal response to GLP-1(7-36)NH2, arithmetic mean
  Emax: 97.2%
hGCGR; [1]
  EC50: > 9950 nM
hGCGR; [2]
  EC50: > 9950 nM
hGIPR; [3]
  Emax: 98.9%
hGIPR; [4]
  Emax: 93%

## CC[C@H](C)[C@H](NC(=O)[C@H](CC(C)C)NC(=O)[C@](C)(Cc1ccc(O)cc1)NC(=O)[C@@H](CCC(=O)O)NC(=O)[C@@H](NC(=O)[C@H](Cc1ccccc1)NC(=O)[C@H](CCC(=O)O)NC(=O)C(C)(C)NC(=O)[C@H](CCC(N)=O)NC(=O)[C@H](C)NC(=O)[C@H](CCCCNC(=O)COCCOCCNC(=O)COCCOCCNC(=O)[C@@H](N)CCCCNC(=O)CCCCCCCCCCCCC(=O)O)NC(=O)[C@H](CCCN)NC(=O)[C@H](CC(=O)O)NC(=O)[C@H](CC(C)C)NC(=O)[C@](C)(CC(C)C)NC(=O)[C@@H](NC(=O)C(C)(C)NC(=O)[C@@H](NC(=O)[C@H](CC(=O)O)NC(=O)[C@H](CO)NC(=O)[C@@H](NC(=O)[C@](C)(Cc1ccccc1F)NC(=O)[C@@H](NC(=O)CNC(=O)[C@H](CCC(=O)O)NC(=O)C(C)(C)NC(=O)[C@@H](N)Cc1ccc(O)cc1)[C@@H](C)O)[C@@H](C)O)C(C)C)[C@@H](C)CC)[C@@H](C)CC)C(=O)N[C@@H](CCC(=O)O)C(=O)NCC(=O)NCC(=O)N[C@@H](CCCCNC(=O)COCCOCCNC(=O)COCCOCCNC(=O)[C@@H](N)CCCCNC(=O)CCCCCCCCCCCCC(=O)O)C(=O)N[C@@H](CO)C(=O)N[C@@H](CO)C(=O)NCC(=O)N[C@@H](C)C(=O)N1CCC[C@H]1C(=O)N1CCC[C@H]1C(=O)N1CCC[C@H]1C(=O)N[C@@H](CO)C(N)=O [Example 163]
hGLP-1R; HEK293, percent of maximal response to GLP-1(7-36)NH2, 37° C., 0.1% bovine casein, arithmetic mean, read-out: hGLP-1R Emax, % ± SEM
  Emax: 86.3%
hGLP-1R; cAMP, incubated at 37° C., 0.1% bovine casein (no human serum albumin), read-out: hGLP-1R EC50, nM (SEM, n)
  EC50: 0.199 nM
hGCGR; cAMP, incubated at 37° C., 0.1% bovine casein (no human serum albumin), geometric mean, read-out: hGCGR EC50, nM (SEM, n)
  EC50: > 9950 nM
hGIPR; HEK293, percent of maximal response to GIP(1-42)NH2, 37° C., 0.1% bovine casein, arithmetic mean, read-out: hGIPR Emax, % ± SEM
  Emax: 98.2%
hGIPR; cAMP, incubated at 37° C., 0.1% bovine casein (no human serum albumin), read-out: hGIPR EC50, nM (SEM, n)
  EC50: 0.0427 nM

## CC[C@H](C)[C@H](NC(=O)[C@H](CCCN)NC(=O)[C@H](CC(=O)O)NC(=O)[C@H](CC(C)C)NC(=O)[C@](C)(CC(C)C)NC(=O)[C@@H](NC(=O)[C@H](CO)NC(=O)[C@H](Cc1ccncc1)NC(=O)[C@H](CC(=O)O)NC(=O)[C@H](CO)NC(=O)[C@@H](NC(=O)[C@](C)(Cc1ccccc1F)NC(=O)[C@@H](NC(=O)CNC(=O)[C@H](CCC(=O)O)NC(=O)C(C)(C)NC(=O)[C@@H](N)Cc1ccc(O)cc1)[C@@H](C)O)[C@@H](C)O)[C@@H](C)CC)C(=O)N[C@@H](C)C(=O)N[C@@H](CCC(N)=O)C(=O)NC(C)(C)C(=O)N[C@@H](CCCCNC(=O)COCCOCCNC(=O)COCCOCCNC(=O)CCCCCCCCCCCCC(=O)O)C(=O)N[C@@H](Cc1ccccc1)C(=O)N[C@H](C(=O)N[C@@H](CCCCNC(=O)COCCOCCNC(=O)COCCOCCNC(=O)CCCCCCCCCCCCC(=O)O)C(=O)N[C@@](C)(Cc1ccc(O)cc1)C(=O)N[C@@H](CC(C)C)C(=O)N[C@H](C(=O)N[C@@H](CCC(=O)O)C(=O)NCC(=O)NCC(=O)N1CCC[C@H]1C(=O)N[C@@H](CO)C(=O)N[C@@H](CO)C(=O)NCC(=O)N[C@@H](C)C(=O)N1CCC[C@H]1C(=O)N1CCC[C@H]1C(=O)N1CCC[C@H]1C(=O)N[C@@H](CO)C(N)=O)[C@@H](C)CC)[C@@H](C)CC [Example 191]
hGLP-1R; HEK293, read-out: hGLP-1R Emax, % ± SEM, 0.1% bovine casein and 1.0% human serum albumin, 37° C., percent of maximal response to GLP-1(7-36)NH2
  Emax: 105 ± 7.98%
hGLP-1R; hGLP-1R EC50, nM (SEM, n), 0.1% bovine casein and 1.0% human serum albumin, 37° C.
  EC50: 13.1 nM
hGCGR; [1]
  EC50: > 9950 nM
hGCGR; hGCGR EC50, nM (SEM, n), cAMP, incubated at 37° C., 0.1% bovine casein (no human serum albumin), geometric mean
  EC50: > 9950 nM
hGIPR; [3]
  Emax: 86.2 ± 5.5%
hGIPR; HEK293, read-out: hGIPR Emax, % ± SEM, percent of maximal response to GIP(1-42)NH2, 37° C., 0.1% bovine casein, arithmetic mean
  Emax: 90 ± 3.29%
hGIPR; hGIPR EC50, nM (SEM, n), 0.1% bovine casein and 1.0% human serum albumin, 37° C.
  EC50: 0.866 nM

## CC[C@H](C)[C@H](NC(=O)[C@H](CCCN)NC(=O)[C@H](CC(=O)O)NC(=O)[C@H](CC(C)C)NC(=O)[C@](C)(CC(C)C)NC(=O)[C@@H](NC(=O)C(C)(C)NC(=O)[C@@H](NC(=O)[C@H](CC(=O)O)NC(=O)[C@H](CO)NC(=O)[C@@H](NC(=O)[C@](C)(Cc1ccccc1F)NC(=O)[C@@H](NC(=O)CNC(=O)[C@H](CCC(=O)O)NC(=O)C(C)(C)NC(=O)[C@@H](N)Cc1ccc(O)cc1)[C@@H](C)O)[C@@H](C)O)C(C)C)[C@@H](C)CC)C(=O)N[C@@H](C)C(=O)N[C@@H](CCC(N)=O)C(=O)NC(C)(C)C(=O)N[C@@H](CCCCNC(=O)COCCOCCNC(=O)COCCOCCNC(=O)CC[C@H](NC(=O)CCCCCCCCCOc1ccc(C(=O)O)cc1)C(=O)O)C(=O)N[C@@H](Cc1ccccc1)C(=O)N[C@H](C(=O)N[C@H](CCC(=O)O)C(=O)N[C@@](C)(Cc1ccc(O)cc1)C(=O)N[C@@H](CC(C)C)C(=O)N[C@H](C(=O)N[C@@H](CCCCNC(=O)COCCOCCNC(=O)COCCOCCNC(=O)CC[C@H](NC(=O)CCCCCCCCCOc1ccc(C(=O)O)cc1)C(=O)O)C(=O)NCC(=O)NCC(=O)N1CCC[C@H]1C(=O)N[C@@H](CO)C(=O)N[C@@H](CO)C(=O)NCC(=O)N[C@@H](C)C(=O)N1CCC[C@H]1C(=O)N1CCC[C@H]1C(=O)N1CCC[C@H]1C(=O)N[C@@H](CO)C(N)=O)[C@@H](C)CC)[C@@H](C)CC [Example 330]
hGLP-1R; HEK293, read-out: hGLP-1R Emax, % ± SEM, cAMP, 37° C., 0.1% bovine casein and 1.0% human serum albumin, percent of maximal response to GLP-1(7-36)NH2
  Emax: 85%
hGLP-1R; hGLP-1R EC50, nM (SEM, n), cAMP, 37° C., 0.1% bovine casein (no human serum albumin)
  EC50: 0.477 nM
hGCGR; [2]
  EC50: > 9950 nM
hGCGR; hGCGR EC50, nM (SEM, n), cAMP, 37° C., 0.1% bovine casein and 1.0% human serum albumin, geometric mean (SEM, n)
  EC50: > 9950 nM
hGIPR; [4]
  Emax: 112%
hGIPR; hGIPR EC50, nM (SEM, n), cAMP, 37° C., 0.1% bovine casein (no human serum albumin)
  EC50: 0.0185 nM
